Experimental data: the supplement of paper PMC11451515

Tested on: SEM cells
Experiment: cell viability relative to DMSO control; higher = less cytotoxic
Conditions: 48 h
In short: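 Cells were incubated for 48 h at 37°C before CellTiter-Glo One luminescence was read. The cells were NOMO1 or SEM (500 cells/well) or P12-Ichikawa (1000 cells/well) leukemia cells, adapted for at least four passages in each medium and seeded in 1536-well plates (5 μl). Dosing used library compounds in DMSO applied by pin over 11 threefold points, 47 μM to 0.79 nM. Viability is the per-plate percentage of DMSO wells, with cell-free wells as background.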

[1] = HPLM + 10% dialyzed FBS, 0.000781 µM
[2] = HPLM + 10% dialyzed FBS, 0.00234 µM
[3] = HPLM + 10% dialyzed FBS, 0.00702 µM
[4] = HPLM + 10% dialyzed FBS, 0.0211 µM
[5] = HPLM + 10% dialyzed FBS, 0.0632 µM
[6] = HPLM + 10% dialyzed FBS, 0.19 µM
[7] = HPLM + 10% dialyzed FBS, 0.569 µM
[8] = HPLM + 10% dialyzed FBS, 1.71 µM
[9] = HPLM + 10% dialyzed FBS, 5.12 µM
[10] = HPLM + 10% dialyzed FBS, 15.4 µM
[11] = HPLM + 10% dialyzed FBS, 46.1 µM
[12] = RPMI 5 mM glucose + 10% FBS, 0.000781 µM
[13] = RPMI 5 mM glucose + 10% FBS, 0.00234 µM
[14] = RPMI 5 mM glucose + 10% FBS, 0.00702 µM
[15] = RPMI 5 mM glucose + 10% FBS, 0.0211 µM
[16] = RPMI 5 mM glucose + 10% FBS, 0.0632 µM
[17] = RPMI 5 mM glucose + 10% FBS, 0.19 µM
[18] = RPMI 5 mM glucose + 10% FBS, 0.569 µM
[19] = RPMI 5 mM glucose + 10% FBS, 1.71 µM
[20] = RPMI 5 mM glucose + 10% FBS, 5.12 µM
[21] = RPMI 5 mM glucose + 10% FBS, 15.4 µM
[22] = RPMI 5 mM glucose + 10% FBS, 46.1 µM
[23] = RPMI 5 mM glucose + 10% dialyzed FBS, 0.000781 µM
[24] = RPMI 5 mM glucose + 10% dialyzed FBS, 0.00234 µM
[25] = RPMI 5 mM glucose + 10% dialyzed FBS, 0.00702 µM
[26] = RPMI 5 mM glucose + 10% dialyzed FBS, 0.0211 µM
[27] = RPMI 5 mM glucose + 10% dialyzed FBS, 0.0632 µM
[28] = RPMI 5 mM glucose + 10% dialyzed FBS, 0.19 µM
[29] = RPMI 5 mM glucose + 10% dialyzed FBS, 0.569 µM
[30] = RPMI 5 mM glucose + 10% dialyzed FBS, 1.71 µM
[31] = RPMI 5 mM glucose + 10% dialyzed FBS, 5.12 µM
[32] = RPMI 5 mM glucose + 10% dialyzed FBS, 15.4 µM
[33] = RPMI 5 mM glucose + 10% dialyzed FBS, 46.1 µM

Compound	cell viability [1] [%]	cell viability [2] [%]	cell viability [3] [%]	cell viability [4] [%]	cell viability [5] [%]	cell viability [6] [%]	cell viability [7] [%]	cell viability [8] [%]	cell viability [9] [%]	cell viability [10] [%]	cell viability [11] [%]	cell viability [12] [%]	cell viability [13] [%]	cell viability [14] [%]	cell viability [15] [%]	cell viability [16] [%]	cell viability [17] [%]	cell viability [18] [%]	cell viability [19] [%]	cell viability [20] [%]	cell viability [21] [%]	cell viability [22] [%]	cell viability [23] [%]	cell viability [24] [%]	cell viability [25] [%]	cell viability [26] [%]	cell viability [27] [%]	cell viability [28] [%]	cell viability [29] [%]	cell viability [30] [%]	cell viability [31] [%]	cell viability [32] [%]	cell viability [33] [%]
CCn1nnc2c(N3CCOCC3)nc(-c3ccc(NC(=O)Nc4ccc(C(=O)N5CCN(C)CC5)cc4)cc3)nc21	109	104	87.4	82.6	61.5	58.2	103	54.3	54.1	49.8	41.9	124	116	90.5	81.3	64.2	56.2	114	49.5	48.4	46.4	40.5	101	95.9	79	71.6	60.3	54.3	123	50.8	49.5	44.9	47.8
OC[C@H]1O[C@H](C[C@@H]1O)N2/C=C(C(=O)NC2=O)/C(F)(F)F	77.4	95.7	90.9	89.9	92.3	88.7	72.5	50.2	26.2	20.5	11.8	101	104	116	101	109	123	111	103	79.5	30.4	15.5	100	124	111	115	98.3	117	93.9	66.8	22.6	15.5	10.3
Oc1cc(-c2nc(-c3ccccc3)[nH]c2-c2ccncc2)ccc1Cl	105	115	118	110	104	122	103	104	107	100	80.3	120	114	115	117	107	111	122	116	106	111	45.2	–	–	–	–	–	–	–	–	–	–	–
COc1cc(NCc2ccc3nc(N)nc(N)c3c2C)cc(OC)c1OC	78.1	89.2	91.1	100	99.6	104	99.7	38.1	40.3	32.5	12.1	69.1	94.4	84.9	84.9	96.8	93.2	96.8	24.4	98.4	72.5	3.26	74.5	89.3	88.6	82.3	94.4	94.8	102	23.9	62.9	35.7	3.29
CNC[C@H](O)[C@@H](O)[C@H](O)[C@H](O)CO	96.3	106	103	106	106	114	127	63.4	121	40.9	112	103	96.2	107	93.9	117	115	132	61.3	112	24.9	114	98.1	118	98.8	88.8	116	103	122	58.3	136	28	119
C=CC(=O)Nc1cccc(Sc2nc(Nc3ccc(N4CCN(C)CC4)cc3)ncc2Cl)c1	91.4	105	113	116	114	116	104	86.4	71.1	86	3.8	53.5	68.7	81.6	69.1	82.7	81.2	91.7	60.6	41.3	65.9	2.06	88.8	98.2	97.6	99.9	118	114	72.9	80.9	57.3	58.5	2.75
CCCOc1ccc(C(=O)OCCN(CC)CC)cc1N	85.3	105	29.3	105	104	118	122	104	108	114	97.7	94.6	110	10.1	118	115	107	114	116	105	120	96.3	80	88	23.2	104	99.3	104	95.8	98.1	106	102	85.3
COCCn1c2c([n+](Cc3cnccn3)c1C)C(=O)c1ccccc1C2=O	128	113	123	50.7	23.5	11.2	7.74	8.7	8.71	4.23	3.41	116	128	114	110	71.4	15.5	7.97	8.06	5.61	4.16	2.77	105	132	117	91.1	46.2	12.6	8.08	7.35	5.94	4.15	3.55
Oc1ccc(OCc2ccccc2)cc1	89.8	106	98.9	113	20.8	103	106	97.1	92.5	47.7	28.7	103	106	108	110	13.6	113	114	104	77.6	58.3	31.6	112	114	130	119	47.4	109	126	109	98.9	69.2	30.3
O=C(c1cncc(Br)c1)N1CCC(N2CCCC2)CC1	100	118	107	106	115	106	106	107	114	99.7	88.5	98.4	106	107	110	105	114	117	108	117	95.1	77.2	110	95	95	105	99	112	102	98.7	99.1	91.2	71.2
CC1(C)SCCN([S+](=O)([O-])c2ccc(OCC#CCO)cc2)[C@H]1C(=O)NO	97.8	96.3	109	112	104	99.6	102	89.5	91.3	86.6	80.8	129	116	115	123	109	107	105	104	106	91.4	88.1	105	109	105	103	91.1	94.3	107	90.1	78.9	74.1	69.5
COc1c(Cl)cc2c([nH]c3cnccc32)c1NC(=O)c1cccnc1C	100	116	119	92	114	103	118	108	107	103	84.8	–	–	–	–	–	–	–	–	–	–	–	93.6	95.3	108	97.5	110	107	101	125	106	105	90.1
CC1(C)CC\C2=C(/O1)C3=C(C=CC=C3)C(=O)C2=O	103	117	86.2	112	113	110	98.8	94.7	95	78.9	4.79	127	115	94.1	124	129	117	117	102	108	76.3	3.64	105	121	95.4	102	114	119	100	84.5	72.9	55.8	2.69
CCC(CCCC)COC(=O)C(\C#N)=C(\c1ccccc1)c2ccccc2 (stereo not drawn)	91.6	55.3	90.3	89.3	98.8	93.9	95.9	90.6	110	99.6	86.3	79.8	44	99	86.1	94.1	96.6	96.2	97.8	95.6	91.6	88.9	88.3	46.3	103	99.7	99.9	90.3	107	86	91.5	106	107
Cc1ccc(Nc2cc(-c3cccc(N4C(=O)c5ccccc5C4=O)c3)ncn2)cc1N[S+](C)(=O)[O-]	102	97.9	131	117	126	123	117	137	123	123	76.2	123	95.8	137	138	128	132	142	166	133	132	105	122	117	119	119	135	115	127	154	136	142	77.7
